# Assay results as given in patent US20090196912A1, “Pyridinylamines” (GPC Botech AG, priority 2004, published 2009).
# Experiments:
# Assay in all cases: Generic kinase assay (33P-ATP, Myelin Basic Protein)
# Type in all cases: biochemical
# [1] = target: CDK1/CyclinB (Homo sapiens, UniProt P06493); conditions: class symbol: % inhibition at 10 μM or IC50
# Method: (§1) In order to determine the inhibitory effect of the compounds of the subject invention on various target enzymes a generic kinase assay was established.
# (§2) Reactions were performed in 96-Well U-bottom microtiter plates (Greiner Bio-One; Frickenhausen/Germany, Cat. No. 650161), hereinafter designated “Assay Plates”. 10 μl of a solution comprising 40 μM Myelin Basic Protein (Invitrogen; Carlsbad, Calif./USA; Cat. No. 13228-010) and 4 μM ATP in three-fold concentrated Reaction Buffer (60 mM Tris-HCl, pH 7.5; 30 mM MgCl2; 3 mM dithiothreitol) were added into each well of the Assay Plate. 10 μl of serial dilutions of the compounds of the subject invention, dissolved in 4% DMSO, were then added into each well, except for Positive Control. Wells (C+ wells) and Negative Control Wells (C− wells). 10 μl of 4% DMSO without compounds were added to C+ and C− wells. 10 μl of a 500 mM solution of EDTA in water was then added to C− wells. Then 10 μl of a solution containing 50 μCi/ml Adenosine 5′-[γ-^33P]triphosphate in water was added to each well. To start the reaction 10 μl of the kinase to be assayed was added to each well. The optimal amount of kinase in the assay was determined to be the amount which yields to a turn-over of about 10% of ATP. Assay Plates were incubated for one hour at room temperature. Then 10 μl of a 500 mM solution of EDTA in water was added to each well except C− wells. Samples were now ready for measurement.
# (§3) Measurements were preformed in 96-Well MAPH-Filter Plates (Millipore; Billerica, Mass./United States; Cat. No. MAPHNOB50), hereinafter designated “Measurement Plates”. Measurement Plates were washed with 200 μl of a 0.75% H3PO4 solution per well. The H3PO4 solution was exhausted using a Millipore vacuum station. 60 μl of a 0.75% H3PO4 solution was then added into each well, followed by the transfer of 30 μl of each well from the Assay Plate into the corresponding wells of the Measurement Plate. The Measurement Plate was incubated for 30 minutes at room temperature. Thereafter each well was washed three times with 200 μl of a 0.75% H3PO4 solution using a Millipore vacuum station. 20 μl of scintillation liquid (Supermix Liquid Szintillator; Perkin Elmer, Wellesley. Mass./United States; Cat. No. 1200-439) was then added to each well of the Measurement Plate. The plate was sealed and stored for 30 minutes in the darkness before radioactivity was quantified in a MicroBeta Scintillation Counter (Perkin Elmer, Wellesley. Mass./United States).
# [2] = target: CDK5/p35 (Homo sapiens, UniProt Q00535); conditions: class symbol: % inhibition at 10 μM or IC50
# Method: as §1, §2, §3
# [3] = target: T1, IKKb (Homo sapiens, UniProt O14920); conditions: class symbol: % inhibition at 10 μM or IC50
# T1 sequence (O14920 1-756): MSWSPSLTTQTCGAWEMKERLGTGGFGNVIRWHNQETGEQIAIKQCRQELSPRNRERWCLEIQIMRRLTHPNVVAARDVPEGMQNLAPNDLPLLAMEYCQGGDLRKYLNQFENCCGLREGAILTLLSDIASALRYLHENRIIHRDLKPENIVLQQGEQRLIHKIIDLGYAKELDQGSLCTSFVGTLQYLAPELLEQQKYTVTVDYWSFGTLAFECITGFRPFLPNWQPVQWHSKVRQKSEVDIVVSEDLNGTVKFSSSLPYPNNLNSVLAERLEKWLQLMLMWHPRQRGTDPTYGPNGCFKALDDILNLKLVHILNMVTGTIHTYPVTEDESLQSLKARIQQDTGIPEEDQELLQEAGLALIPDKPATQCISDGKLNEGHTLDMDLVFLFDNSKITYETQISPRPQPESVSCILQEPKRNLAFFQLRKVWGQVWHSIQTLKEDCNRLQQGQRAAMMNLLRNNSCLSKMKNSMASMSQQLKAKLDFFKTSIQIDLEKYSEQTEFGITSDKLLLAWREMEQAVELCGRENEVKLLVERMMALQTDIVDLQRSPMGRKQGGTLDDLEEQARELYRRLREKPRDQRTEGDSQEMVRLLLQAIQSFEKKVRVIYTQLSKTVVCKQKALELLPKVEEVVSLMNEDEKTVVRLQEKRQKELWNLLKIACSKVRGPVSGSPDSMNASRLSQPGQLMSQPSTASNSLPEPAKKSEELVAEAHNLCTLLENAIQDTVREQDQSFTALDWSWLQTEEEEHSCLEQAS
# Method: as §1, §2, §3
# [4] = tested on: PDGFR; conditions: class symbol: % inhibition at 10 μM or IC50
# Method: as §1, §2, §3
# [5] = target: RICK (Homo sapiens, UniProt O43353); conditions: class symbol: % inhibition at 10 μM or IC50
# Chain of RICK (O43353 whole entry, species assumed): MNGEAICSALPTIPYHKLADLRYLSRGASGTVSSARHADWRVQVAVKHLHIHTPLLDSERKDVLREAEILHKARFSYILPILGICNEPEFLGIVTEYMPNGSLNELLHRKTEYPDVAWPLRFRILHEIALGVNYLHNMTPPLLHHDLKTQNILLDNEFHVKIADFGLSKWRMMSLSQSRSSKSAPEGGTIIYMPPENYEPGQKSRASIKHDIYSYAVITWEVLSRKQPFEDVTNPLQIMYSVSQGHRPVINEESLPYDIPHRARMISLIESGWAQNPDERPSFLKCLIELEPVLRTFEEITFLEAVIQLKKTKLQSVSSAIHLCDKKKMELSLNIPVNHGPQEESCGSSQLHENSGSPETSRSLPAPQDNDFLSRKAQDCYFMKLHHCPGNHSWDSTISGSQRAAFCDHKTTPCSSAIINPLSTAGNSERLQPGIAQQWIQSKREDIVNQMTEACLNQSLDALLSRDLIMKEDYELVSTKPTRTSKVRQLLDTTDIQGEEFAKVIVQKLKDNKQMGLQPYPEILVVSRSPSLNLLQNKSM
# Method: as §1, §2, §3
# [6] = target: Abl (Homo sapiens, UniProt P00519); conditions: 1 h; class symbol: % inhibition at 10 μM or IC50; read-out: Inhibitory effect on target Abl
# Chain of Abl (P00519 whole entry, species assumed): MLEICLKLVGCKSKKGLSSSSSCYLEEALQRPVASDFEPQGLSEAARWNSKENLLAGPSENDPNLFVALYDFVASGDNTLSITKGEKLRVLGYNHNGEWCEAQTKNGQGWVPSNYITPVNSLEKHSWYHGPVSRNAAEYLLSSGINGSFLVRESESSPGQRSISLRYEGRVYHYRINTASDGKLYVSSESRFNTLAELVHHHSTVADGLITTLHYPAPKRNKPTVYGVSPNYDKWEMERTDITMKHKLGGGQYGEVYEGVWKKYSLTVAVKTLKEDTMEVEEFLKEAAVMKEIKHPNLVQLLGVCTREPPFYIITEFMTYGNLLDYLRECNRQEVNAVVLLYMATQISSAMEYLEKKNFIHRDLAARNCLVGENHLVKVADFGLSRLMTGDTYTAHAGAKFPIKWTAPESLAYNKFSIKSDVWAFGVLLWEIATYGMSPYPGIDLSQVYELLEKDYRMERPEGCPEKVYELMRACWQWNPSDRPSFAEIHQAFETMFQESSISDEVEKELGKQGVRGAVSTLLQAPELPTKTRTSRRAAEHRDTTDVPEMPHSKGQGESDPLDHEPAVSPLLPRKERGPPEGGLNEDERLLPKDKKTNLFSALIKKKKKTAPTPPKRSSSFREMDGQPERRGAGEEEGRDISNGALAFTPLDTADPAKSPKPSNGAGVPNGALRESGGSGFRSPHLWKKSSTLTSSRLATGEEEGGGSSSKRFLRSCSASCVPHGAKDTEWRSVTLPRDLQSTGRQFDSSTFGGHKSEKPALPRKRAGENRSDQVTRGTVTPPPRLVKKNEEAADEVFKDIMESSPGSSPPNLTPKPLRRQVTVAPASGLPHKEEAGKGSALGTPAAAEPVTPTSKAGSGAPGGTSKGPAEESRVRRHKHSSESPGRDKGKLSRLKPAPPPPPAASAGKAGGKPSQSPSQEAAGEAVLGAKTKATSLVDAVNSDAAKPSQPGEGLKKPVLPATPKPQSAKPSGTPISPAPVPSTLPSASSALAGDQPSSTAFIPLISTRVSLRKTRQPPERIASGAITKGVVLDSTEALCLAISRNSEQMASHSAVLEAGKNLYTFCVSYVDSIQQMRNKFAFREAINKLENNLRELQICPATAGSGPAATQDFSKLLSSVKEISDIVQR
# Method: as §1, §2, §3
# [7] = target: CDK2/CyclinA (Homo sapiens, UniProt P24941); conditions: class symbol: % inhibition at 10 μM or IC50
# Method: as §1, §2, §3
# [8] = target: EGFR (Homo sapiens, UniProt P00533); conditions: class symbol: % inhibition at 10 μM or IC50
# Chain of EGFR (P00533 25-1210, species assumed): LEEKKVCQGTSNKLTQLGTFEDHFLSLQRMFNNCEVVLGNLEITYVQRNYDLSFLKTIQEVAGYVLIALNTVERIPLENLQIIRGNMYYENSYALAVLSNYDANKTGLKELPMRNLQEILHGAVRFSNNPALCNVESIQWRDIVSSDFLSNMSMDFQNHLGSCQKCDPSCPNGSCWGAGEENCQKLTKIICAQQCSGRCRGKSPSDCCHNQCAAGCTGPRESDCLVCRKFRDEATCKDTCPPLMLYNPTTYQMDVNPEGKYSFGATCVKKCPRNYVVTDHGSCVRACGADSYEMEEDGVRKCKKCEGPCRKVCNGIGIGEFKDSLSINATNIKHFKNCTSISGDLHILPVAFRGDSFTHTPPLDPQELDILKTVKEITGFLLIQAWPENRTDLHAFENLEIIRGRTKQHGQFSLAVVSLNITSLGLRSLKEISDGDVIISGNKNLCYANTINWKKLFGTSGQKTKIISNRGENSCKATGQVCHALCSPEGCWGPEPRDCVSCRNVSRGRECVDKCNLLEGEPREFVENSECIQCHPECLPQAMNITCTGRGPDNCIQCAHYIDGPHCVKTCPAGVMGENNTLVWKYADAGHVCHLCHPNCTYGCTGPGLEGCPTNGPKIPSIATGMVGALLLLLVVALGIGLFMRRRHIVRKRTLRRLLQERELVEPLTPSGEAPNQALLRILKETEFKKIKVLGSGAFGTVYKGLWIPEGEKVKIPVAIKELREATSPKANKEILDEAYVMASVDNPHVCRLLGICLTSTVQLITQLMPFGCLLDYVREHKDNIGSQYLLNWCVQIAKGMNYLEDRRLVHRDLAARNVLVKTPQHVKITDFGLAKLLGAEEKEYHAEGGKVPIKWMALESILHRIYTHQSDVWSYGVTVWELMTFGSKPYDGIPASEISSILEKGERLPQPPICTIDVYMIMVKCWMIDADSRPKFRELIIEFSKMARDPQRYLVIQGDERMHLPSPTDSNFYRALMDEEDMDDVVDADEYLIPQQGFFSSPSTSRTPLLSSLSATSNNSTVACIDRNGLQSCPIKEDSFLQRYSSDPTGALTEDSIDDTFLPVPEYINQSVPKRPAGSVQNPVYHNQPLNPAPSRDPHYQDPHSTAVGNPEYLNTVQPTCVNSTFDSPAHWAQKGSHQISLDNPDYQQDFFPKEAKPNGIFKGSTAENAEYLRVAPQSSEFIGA
# Method: as §1, §2, §3
# [9] = target: GSK-3beta (Homo sapiens, UniProt P49841); conditions: class symbol: % inhibition at 10 μM or IC50
# Method: as §1, §2, §3
# [10] = target: ROCK 2 (Homo sapiens, UniProt O75116); conditions: class symbol: % inhibition at 10 μM or IC50; for inhibition at 10 µM: 1 h, read-out: Inhibitory effect on target ROCK 2
# Method: as §1, §2, §3
# [11] = target: c-kit (Homo sapiens, UniProt P10721); conditions: 1 h; class symbol: % inhibition at 10 μM or IC50; read-out: Inhibitory effect on target c-kit
# Chain of c-kit (P10721 26-976): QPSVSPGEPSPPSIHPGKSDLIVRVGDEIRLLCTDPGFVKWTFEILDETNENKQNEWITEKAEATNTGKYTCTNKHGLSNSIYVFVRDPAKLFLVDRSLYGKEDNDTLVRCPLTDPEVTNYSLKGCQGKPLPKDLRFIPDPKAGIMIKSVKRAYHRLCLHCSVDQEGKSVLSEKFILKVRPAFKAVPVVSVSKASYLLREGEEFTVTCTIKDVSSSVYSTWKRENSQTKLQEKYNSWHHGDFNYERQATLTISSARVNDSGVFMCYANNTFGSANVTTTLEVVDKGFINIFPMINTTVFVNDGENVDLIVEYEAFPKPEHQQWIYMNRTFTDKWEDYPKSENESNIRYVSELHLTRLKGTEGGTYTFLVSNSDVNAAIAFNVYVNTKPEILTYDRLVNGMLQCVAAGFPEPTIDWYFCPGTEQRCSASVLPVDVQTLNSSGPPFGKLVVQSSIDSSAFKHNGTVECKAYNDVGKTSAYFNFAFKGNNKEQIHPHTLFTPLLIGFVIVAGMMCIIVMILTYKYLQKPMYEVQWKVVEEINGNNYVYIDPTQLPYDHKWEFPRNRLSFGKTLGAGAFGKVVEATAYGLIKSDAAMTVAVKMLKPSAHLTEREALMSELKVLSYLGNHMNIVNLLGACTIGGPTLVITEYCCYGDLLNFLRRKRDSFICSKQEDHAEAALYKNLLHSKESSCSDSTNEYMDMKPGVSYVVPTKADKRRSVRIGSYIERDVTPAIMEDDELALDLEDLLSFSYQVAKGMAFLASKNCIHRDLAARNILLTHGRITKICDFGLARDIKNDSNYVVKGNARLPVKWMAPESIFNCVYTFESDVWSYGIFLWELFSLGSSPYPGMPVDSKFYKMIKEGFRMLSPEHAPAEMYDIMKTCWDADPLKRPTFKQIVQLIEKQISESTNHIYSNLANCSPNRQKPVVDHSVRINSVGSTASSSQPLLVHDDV
# Method: as §1, §2, §3
# [12] = target: cRaf (Homo sapiens, UniProt P04049); conditions: 1 h; class symbol: % inhibition at 10 μM or IC50; read-out: Inhibitory effect on target cRaf
# Method: as §1, §2, §3
# [13] = target: p56Lck (Homo sapiens, UniProt P06239); conditions: 1 h; class symbol: % inhibition at 10 μM or IC50; read-out: Inhibitory effect on target p56Lck
# Chain of p56Lck (P06239 whole entry, species assumed): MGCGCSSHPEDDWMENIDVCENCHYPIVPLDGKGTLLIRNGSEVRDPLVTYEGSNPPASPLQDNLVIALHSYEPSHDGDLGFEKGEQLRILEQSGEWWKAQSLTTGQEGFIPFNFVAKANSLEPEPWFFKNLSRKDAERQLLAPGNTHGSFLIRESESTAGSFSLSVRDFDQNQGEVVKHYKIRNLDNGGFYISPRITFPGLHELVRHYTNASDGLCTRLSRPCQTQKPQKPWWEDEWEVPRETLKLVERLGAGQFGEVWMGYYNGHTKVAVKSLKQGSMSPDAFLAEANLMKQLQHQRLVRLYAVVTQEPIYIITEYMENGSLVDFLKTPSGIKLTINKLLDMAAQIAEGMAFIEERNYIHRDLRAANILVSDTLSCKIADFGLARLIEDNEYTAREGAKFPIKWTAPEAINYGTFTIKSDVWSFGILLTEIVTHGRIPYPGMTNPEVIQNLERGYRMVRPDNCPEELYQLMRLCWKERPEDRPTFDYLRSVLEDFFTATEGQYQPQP
# Method: as §1, §2, §3
# [14] = target: p38 (Homo sapiens, UniProt Q16539); conditions: class symbol: % inhibition at 10 μM or IC50
# Method: as §1, §2, §3
# [15] = target: c-Src (Homo sapiens, UniProt P12931); conditions: class symbol: % inhibition at 10 μM or IC50
# Method: as §1, §2, §3
# [16] = target: UL97 (Human cytomegalovirus, UniProt P16788); conditions: class symbol: % inhibition at 10 μM or IC50
# Method: as §1, §2, §3
# Chain of CDK1/CyclinB (P06493 whole entry, species assumed): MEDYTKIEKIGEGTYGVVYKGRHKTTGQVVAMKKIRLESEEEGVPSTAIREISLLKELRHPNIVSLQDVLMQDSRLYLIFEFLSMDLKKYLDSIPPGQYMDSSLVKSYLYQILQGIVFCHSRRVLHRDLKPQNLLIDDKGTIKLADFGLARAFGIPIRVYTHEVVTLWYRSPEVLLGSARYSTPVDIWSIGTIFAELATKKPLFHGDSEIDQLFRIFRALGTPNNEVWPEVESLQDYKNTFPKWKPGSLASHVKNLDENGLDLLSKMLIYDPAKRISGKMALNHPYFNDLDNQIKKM
# Chain of CDK1/CyclinB (P14635 whole entry partner, species assumed): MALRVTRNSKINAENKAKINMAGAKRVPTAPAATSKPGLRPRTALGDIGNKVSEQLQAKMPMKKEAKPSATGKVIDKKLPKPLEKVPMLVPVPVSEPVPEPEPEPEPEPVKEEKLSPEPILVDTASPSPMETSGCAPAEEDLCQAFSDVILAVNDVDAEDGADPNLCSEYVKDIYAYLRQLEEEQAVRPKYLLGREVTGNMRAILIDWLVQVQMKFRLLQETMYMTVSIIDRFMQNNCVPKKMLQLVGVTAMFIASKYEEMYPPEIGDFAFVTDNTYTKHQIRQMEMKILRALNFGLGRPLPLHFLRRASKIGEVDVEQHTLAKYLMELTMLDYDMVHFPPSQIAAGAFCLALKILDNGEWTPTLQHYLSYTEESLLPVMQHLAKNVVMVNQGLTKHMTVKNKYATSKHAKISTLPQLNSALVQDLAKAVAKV
Structure (SMILES),Inhibitory effect on target RICK [5],inhibition at 10 µM [6] [%],Inhibitory effect on target ROCK 2 [10],inhibition at 10 µM [11] [%],inhibition at 10 µM [12] [%],inhibition at 10 µM [13] [%],inhibition at 10 µM [10] [%],Inhibitory effect on target UL97 [16],Inhibitory effect on target CDK1/CyclinB [1],Inhibitory effect on target CDK5/p35 [2],Inhibitory effect on target IKKb [3],Inhibitory effect on target PDGFR [4],Inhibitory effect on target CDK2/CyclinA [7],Inhibitory effect on target EGFR [8],Inhibitory effect on target GSK-3beta [9],Inhibitory effect on target p38 [14],Inhibitory effect on target c-Src [15]
"CC(=O)Nc1cccc(-c2cncc(Nc3ccc(C#N)cc3)c2)c1 [Compound 205, N-{3-[5-(4-Cyano-phenylamino)-pyridin-3-yl]-phenyl}-acetamide]",C (C: IC50 measured: <1 μM),,,,,,,,A (A: 50-90% inhibition at 10 μM enzyme concentration),A (A: 50-90% inhibition at 10 μM enzyme concentration),A (A: 50-90% inhibition at 10 μM enzyme concentration),A (A: 50-90% inhibition at 10 μM enzyme concentration),,,,,
"Oc1ccc(-c2cncc(NCc3cccc(O)c3)c2)cc1 [Compound 212, 3-{[5-(4-Hydroxy-phenyl)-pyridin-3-ylamino]-methyl}-phenol]",C (C: IC50 measured: <1 μM),50 to 90,C (C: IC50 measured: <1 μM),> 90,50 to 90,> 90,,,,,,A (A: 50-90% inhibition at 10 μM enzyme concentration),B (B: >90% inhibition at 10 μM enzyme concentration),A (A: 50-90% inhibition at 10 μM enzyme concentration),A (A: 50-90% inhibition at 10 μM enzyme concentration),,
"CC(=O)Nc1cccc(-c2cncc(NCc3cccc(O)c3)c2)c1 [Compound 221, N-{3-[5-(3-Hydroxy-benzylamino)-pyridin-3-yl]-phenyl}-acetamide]",C (C: IC50 measured: <1 μM),50 to 90,,> 90,50 to 90,> 90,,,,,,A (A: 50-90% inhibition at 10 μM enzyme concentration),,A (A: 50-90% inhibition at 10 μM enzyme concentration),,A (A: 50-90% inhibition at 10 μM enzyme concentration),

# Now from value to molecule, other results behind:
Inhibitory effect on target RICK [5],inhibition at 10 µM [6] [%],Inhibitory effect on target ROCK 2 [10],inhibition at 10 µM [11] [%],inhibition at 10 µM [12] [%],inhibition at 10 µM [13] [%],inhibition at 10 µM [10] [%],Inhibitory effect on target UL97 [16],Structure (SMILES),Inhibitory effect on target CDK1/CyclinB [1],Inhibitory effect on target CDK5/p35 [2],Inhibitory effect on target IKKb [3],Inhibitory effect on target PDGFR [4],Inhibitory effect on target CDK2/CyclinA [7],Inhibitory effect on target EGFR [8],Inhibitory effect on target GSK-3beta [9],Inhibitory effect on target p38 [14],Inhibitory effect on target c-Src [15]
C (C: IC50 measured: <1 μM),50 to 90,,50 to 90,50 to 90,> 90,,,"O=C(Nc1cncc(-c2cccc(O)c2)c1)c1cccc(O)c1 [Compound 234, 3-Hydroxy-N-[5-(3-hydroxy-phenyl)-pyridin-3-yl]-benzamide]",,,A (A: 50-90% inhibition at 10 μM enzyme concentration),B (B: >90% inhibition at 10 μM enzyme concentration),,B (B: >90% inhibition at 10 μM enzyme concentration),,,B (B: >90% inhibition at 10 μM enzyme concentration)
C (C: IC50 measured: <1 μM),,,,,,,,"CC(=O)Nc1cccc(-c2cncc(Nc3ccccc3F)c2)c1 [Compound 237, N-{3-[5-(2-Fluoro-phenylamino)-pyridin-3-yl]-phenyl}-acetamide]",A (A: 50-90% inhibition at 10 μM enzyme concentration),,A (A: 50-90% inhibition at 10 μM enzyme concentration),A (A: 50-90% inhibition at 10 μM enzyme concentration),,A (A: 50-90% inhibition at 10 μM enzyme concentration),,,
C (C: IC50 measured: <1 μM),50 to 90,,,50 to 90,50 to 90,50 to 90,,"COc1cccc(-c2cncc(NCc3cccc(O)c3)c2)c1 [Compound 239, 3-{[5-(3-Methoxy-phenyl)-pyridin-3-ylamino]-methyl}-phenol]",B (B: >90% inhibition at 10 μM enzyme concentration),A (A: 50-90% inhibition at 10 μM enzyme concentration),,B (B: >90% inhibition at 10 μM enzyme concentration),C (C: IC50 measured: <1 μM),A (A: 50-90% inhibition at 10 μM enzyme concentration),,,B (B: >90% inhibition at 10 μM enzyme concentration)
C (C: IC50 measured: <1 μM),,,,,,50 to 90,C (C: IC50 measured: <1 μM),"CN(Cc1cccc(O)c1)c1cncc(-c2cccc(O)c2)c1 [Compound 241, 3-{5-[(3-Hydroxy-benzyl)-methyl-amino]-pyridin-3-yl}-phenol]",,,,,,,,,
C (C: IC50 measured: <1 μM),,,,50 to 90,,,C (C: IC50 measured: <1 μM),"Nc1cccc(CNc2cncc(-c3cccc(O)c3)c2)c1 [Compound 245, 3-[5-(3-Amino-benzylamino)-pyridin-3-yl]-phenol]",,,,,,,,,
